# Data reported in patent US20250281424A1 (New York Blood Center, Inc, priority 2020, published 2025).
# Target: T1, human PF4 (Homo sapiens, UniProt P02776)
# T1 construct: PF4 is a 70 amino acid, lysine-rich 7.8 kDa platelet-specific protein; made in house; host or cells: Escherichia coli BL21DE3 pLysS (pT7-7) and/or Drosophila S2 cells
# T1 sequence (P02776 32-101): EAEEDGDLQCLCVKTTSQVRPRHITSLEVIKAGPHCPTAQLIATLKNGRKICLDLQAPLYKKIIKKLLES
# Test: Inhibition of PF4 tetramer formation (BS3 cross-linking, SDS-PAGE)
# Assay type: biochemical
# Conditions: for inhibition at 5 µM: 5 μM inhibitor; for inhibition at 5 µM / inhibition at 10 µM / inhibition at 1 µM / inhibition at 3 µM: read-out: % inhibition of PF4 tetramer formation at single concentration of inhibitor; for inhibition at 10 µM: 10 μM inhibitor (column A); for IC50: read-out: IC50 of PF4 tetramer formation inhibition; for inhibition at 1 µM: 1 μM inhibitor; for inhibition at 3 µM: 3 μM inhibitor (column A)
# How it was run: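 Monomer, dimer, trimer and tetramer fractions were quantified by densitometry after reducing 12% SDS-PAGE of BS3-cross-linked (0.2 mM, 30 min, room temperature) PF4. Before cross-linking, 10 μg/ml E. coli-expressed human WT PF4 in PBS was exposed to compound for 15 min at 37° C or 60 min at room temperature; controls lacked compound.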
Structure (SMILES),inhibition at 5 µM [%],inhibition at 10 µM [%],IC50 [µM],inhibition at 3 µM [%],inhibition at 1 µM [%]
C/C(O)=C1\C(=O)c2ccc(C#Cc3ccc4c(c3)C(=O)/C(=C(/C)O)C4=O)cc2C1=O [Example 196],88,96,5.3,–,–
"COC(=O)c1ccccc1NC(=O)C1C(=O)c2ccc(C(=O)c3ccc4c(c3)C(=O)C(C(=O)Nc3ccccc3C(=O)OC)C4=O)cc2C1=O (centres unmarked) [Example 99, methyl 2-[5-(2-{[2-(methoxycarbonyl)phenyl]carbamoyl}-1,3-dioxo-2,3-dihydro-1H-indene-5-carbonyl)-1,3-dioxo-2,3-dihydro-1H-indene-2-amido]benzoate]",44,100,13,–,–
"C[C@H]1C[C@@H](C(=O)C2C(=O)c3ccc(S(=O)(=O)c4ccc5c(c4)C(=O)C(C(=O)[C@@H]4C[C@H](C)CN4C(=O)OC(C)(C)C)C5=O)cc3C2=O)N(C(=O)OC(C)(C)C)C1 (stereo partly drawn) [Example 224, tert-butyl (2S,4S)-2-[5-({2-[(2S,4S)-1-[(tert-butoxy)carbonyl]-4-methylpyrrolidine-2-carbonyl]-1,3-dioxo-2,3-dihydro-1H-inden-5-yl}sulfonyl)-1,3-dioxo-2,3-dihydro-1H-indene-2-carbonyl]-4-methylpyrrolidine-1-carboxylate]",100,95,2.2,–,–
"CC(C)(C)OCC(=O)C1C(=O)c2ccc(S(=O)(=O)c3ccc4c(c3)C(=O)C(C(=O)COC(C)(C)C)C4=O)cc2C1=O (centres unmarked) [Example 231, 2-[2-(tert-butoxy)acetyl]-5-({2-[2-(tert-butoxy)acetyl]-1,3-dioxo-2,3-dihydro-1H-inden-5-yl}sulfonyl)-2,3-dihydro-1H-indene-1,3-dione]",–,–,1.71,65,69
"O=C(Cc1cccc(F)c1F)C1C(=O)c2ccc(Oc3ccc4c(c3)C(=O)C(C(=O)Cc3cccc(F)c3F)C4=O)cc2C1=O (centres unmarked) [Example 260, 2-[2-(2,3-difluorophenyl)acetyl]-5-({2-[2-(2,3-difluorophenyl)acetyl]-1,3-dioxo-2,3-dihydro-1H-inden-5-yl}oxy)-2,3-dihydro-1H-indene-1,3-dione]",–,–,–,46,11
"Cc1ccccc1NC(=O)C1C(=O)c2ccc(S(=O)(=O)c3ccc4c(c3)C(=O)C(C(=O)Nc3ccccc3C)C4=O)cc2C1=O (centres unmarked) [Example 85, N-(2-methylphenyl)-5-({2-[(2-methylphenyl)carbamoyl]-1,3-dioxo-2,3-dihydro-1H-inden-5-yl}sulfonyl)-1,3-dioxo-2,3-dihydro-1H-indene-2-carboxamide]",–,–,2.5,–,–
"CO[C@@H](C)C(=O)C1C(=O)c2ccc(S(=O)(=O)c3ccc4c(c3)C(=O)C(C(=O)[C@@H](C)OC)C4=O)cc2C1=O (stereo partly drawn) [Example 237, 2-[(2R)-2-methoxypropanoyl]-5-({2-[(2S)-2-methoxypropanoyl]-1,3-dioxo-2,3-dihydro-1H-inden-5-yl}sulfonyl)-2,3-dihydro-1H-indene-1,3-dione]",–,–,–,37,30
"COCCCNC(=O)C1C(=O)c2ccc(S(=O)(=O)c3ccc4c(c3)C(=O)C(C(=O)NCCCOC)C4=O)cc2C1=O (centres unmarked) [Example 90, N-(3-methoxypropyl)-5-({2-[(3-methoxypropyl)carbamoyl]-1,3-dioxo-2,3-dihydro-1H-inden-5-yl}sulfonyl)-1,3-dioxo-2,3-dihydro-1H-indene-2-carboxamide]",–,–,4.2,–,–
"COc1ccc(NC(=O)C2C(=O)c3ccc(C(=O)c4ccc5c(c4)C(=O)C(C(=O)Nc4ccc(OC)cc4OC)C5=O)cc3C2=O)c(OC)c1 (centres unmarked) [Example 96, N-(2,4-dimethoxyphenyl)-5-{2-[(2,4-dimethoxyphenyl)carbamoyl]-1,3-dioxo-2,3-dihydro-1H-indene-5-carbonyl}-1,3-dioxo-2,3-dihydro-1H-indene-2-carboxamide]",36,70,–,–,–
"Cc1ccccc1C(=O)CCC(=O)C1C(=O)c2ccc(S(=O)(=O)c3ccc4c(c3)C(=O)C(C(=O)CCC(=O)c3ccccc3C)C4=O)cc2C1=O (centres unmarked) [Example 254, 2-[4-(2-methylphenyl)-4-oxobutanoyl]-5-({2-[4-(2-methylphenyl)-4-oxobutanoyl]-1,3-dioxo-2,3-dihydro-1H-inden-5-yl}sulfonyl)-2,3-dihydro-1H-indene-1,3-dione]",–,–,–,51,28
"C=C1C[C@@H](C(=O)C2C(=O)c3ccc(C(=O)c4ccc5c(c4)C(=O)C(C(=O)[C@@H]4CC(=C)CN4C(=O)OC(C)(C)C)C5=O)cc3C2=O)N(C(=O)OC(C)(C)C)C1 (stereo partly drawn) [Example 133, tert-butyl (2S)-2-(5-{2-[(2S)-1-[(tert-butoxy)carbonyl]-4-methylidenepyrrolidine-2-carbonyl]-1,3-dioxo-2,3-dihydro-1H-indene-5-carbonyl}-1,3-dioxo-2,3-dihydro-1H-indene-2-carbonyl)-4-methylidenepyrrolidine-1-carboxylate]",66,88,~6,–,–

# Second part, led by results:
inhibition at 5 µM [%],inhibition at 10 µM [%],IC50 [µM],inhibition at 3 µM [%],Structure (SMILES),inhibition at 1 µM [%]
–,–,–,40,"CCNC(=O)C1C(=O)c2ccc(Oc3ccc4c(c3)C(=O)C(C(=O)NCC)C4=O)cc2C1=O (centres unmarked) [Example 334, N-ethyl-5-{[2-(ethylcarbamoyl)-1,3-dioxo-2,3-dihydro-1H-inden-5-yl]oxy}-1,3-dioxo-2,3-dihydro-1H-indene-2-carboxamide]",27
87,89,4.8,–,"COC(=O)N1CCC[C@H]1C(=O)C1C(=O)c2ccc(-c3ccc4c(c3)C(=O)C(C(=O)[C@@H]3CCCN3C(=O)OC)C4=O)cc2C1=O (stereo partly drawn) [Example 213, methyl (2S)-2-{2′-[(2S)-1-(methoxycarbonyl)pyrrolidine-2-carbonyl]-1,1′,3,3′-tetraoxo-1H,1′H,2H,2′H,3H,3′H-[5,5′-biindene]-2-carbonyl}pyrrolidine-1-carboxylate]",–
–,–,1.26,100,"O=C(NC1CCC1)C1C(=O)c2ccc(S(=O)(=O)c3ccc4c(c3)C(=O)C(C(=O)NC3CCC3)C4=O)cc2C1=O (centres unmarked) [Example 292, N-cyclobutyl-5-{[2-(cyclobutylcarbamoyl)-1,3-dioxo-2,3-dihydro-1H-inden-5-yl]sulfonyl}-1,3-dioxo-2,3-dihydro-1H-indene-2-carboxamide]",47
–,–,–,100,"O=C(c1ccc2c(c1)C(=O)C(C(=O)Cc1ccncc1)C2=O)c1ccc2c(c1)C(=O)C(C(=O)Cc1ccncc1)C2=O (centres unmarked) [Example 239, 5-{1,3-dioxo-2-[2-(pyridin-4-yl)acetyl]-2,3-dihydro-1H-indene-5-carbonyl}-2-[2-(pyridin-4-yl)acetyl]-2,3-dihydro-1H-indene-1,3-dione]",–
–,–,–,45,"O=C(c1ccc2c(c1)C(=O)C(C(=O)NCC1CCS(=O)(=O)C1)C2=O)c1ccc2c(c1)C(=O)C(C(=O)NCC1CCS(=O)(=O)C1)C2=O (centres unmarked) [Example 359, N-[(1,1-dioxo-1λ^6-thiolan-3-yl)methyl]-5-(2-{[(1,1-dioxo-1λ^6-thiolan-3-yl)methyl]carbamoyl}-1,3-dioxo-2,3-dihydro-1H-indene-5-carbonyl)-1,3-dioxo-2,3-dihydro-1H-indene-2-carboxamide]",34
–,–,–,24,"COC(=O)CCC(=O)C1C(=O)c2ccc(C(=O)c3ccc4c(c3)C(=O)C(C(=O)CCC(=O)OC)C4=O)cc2C1=O (centres unmarked) [Example 230, methyl 4-{5-[2-(4-methoxy-4-oxobutanoyl)-1,3-dioxo-2,3-dihydro-1H-indene-5-carbonyl]-1,3-dioxo-2,3-dihydro-1H-inden-2-yl}-4-oxobutanoate]",1
